One experiment concerns the target human orexin-1 receptor (Homo sapiens (Human), UniProt O43613). Kind of experiment: In vitro assay: intracellular calcium measurements (FLIPR), antagonistic activity. In kind it is cell-based. The note with it: CHO cells expressing human orexin-1 receptor, orexin-A agonist, geometric mean, read-out: IC50 Ox1. Put shortly:
(§1)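 Read-out: FLIPR fluo-4 calcium peak height in CHO cells bearing human orexin-1 or orexin-2 receptor, relative to orexin-A (approx. EC70) with vehicle. Antagonist preincubation 120 min; agonist orexin-A at 3 nM final. IC50 possibly normalized to an on-plate reference compound.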

The target of the next experiment is human orexin-2 receptor (Homo sapiens (Human), UniProt O43614). The experiment is described as above. Type of experiment: cell-based. The note with it: CHO cells expressing human orexin-2 receptor, orexin-A agonist, geometric mean, read-out: IC50 Ox2. Put shortly: as §1
human orexin-2 receptor, sequence (O43614 whole entry): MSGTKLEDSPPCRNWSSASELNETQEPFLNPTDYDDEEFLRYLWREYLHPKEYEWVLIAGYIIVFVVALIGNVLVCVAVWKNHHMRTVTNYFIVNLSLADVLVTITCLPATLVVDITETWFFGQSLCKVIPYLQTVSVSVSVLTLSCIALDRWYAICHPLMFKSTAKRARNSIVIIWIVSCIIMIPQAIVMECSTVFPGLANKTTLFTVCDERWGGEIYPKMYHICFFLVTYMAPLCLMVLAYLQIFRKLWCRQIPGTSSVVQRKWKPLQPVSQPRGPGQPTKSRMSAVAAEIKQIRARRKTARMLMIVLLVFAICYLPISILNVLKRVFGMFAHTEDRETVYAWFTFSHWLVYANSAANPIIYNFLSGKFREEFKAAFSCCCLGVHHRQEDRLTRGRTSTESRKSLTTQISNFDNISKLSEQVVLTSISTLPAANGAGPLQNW

human orexin-1 receptor, sequence (O43613 whole entry): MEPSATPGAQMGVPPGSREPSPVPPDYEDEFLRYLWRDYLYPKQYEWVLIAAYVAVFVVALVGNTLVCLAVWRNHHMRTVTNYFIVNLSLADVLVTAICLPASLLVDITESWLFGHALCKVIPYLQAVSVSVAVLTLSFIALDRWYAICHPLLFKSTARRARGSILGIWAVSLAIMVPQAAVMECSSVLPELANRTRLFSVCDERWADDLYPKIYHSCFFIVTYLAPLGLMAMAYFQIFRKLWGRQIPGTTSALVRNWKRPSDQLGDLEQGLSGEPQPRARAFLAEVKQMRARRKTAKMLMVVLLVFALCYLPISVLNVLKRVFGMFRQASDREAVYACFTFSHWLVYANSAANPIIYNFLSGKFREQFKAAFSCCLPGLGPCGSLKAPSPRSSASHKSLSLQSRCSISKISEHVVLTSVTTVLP

Broadly, the IC50 is the concentration at which inhibition is half-maximal. With `C=C1CC(c2nc3cc(Cl)c(C(F)(F)F)cc3[nH]2)N(C(=O)c2nc(C3CC3)sc2-c2cccc(C)c2)C1` (racemic) [Ex. 6.97], the IC50 on human orexin-1 receptor is 14 nM; on human orexin-2 receptor, 10 nM.

`CSc1ccc2nc([C@@H]3CCCN3C(=O)c3cnc(C)nc3-c3cccc(Cl)c3)[nH]c2c1` [Ex. 1.51]: the 50% inhibitory concentration (IC50) at human orexin-1 receptor turned out to be 66 nM; on human orexin-2 receptor, 21 nM.

On to `COc1cc2nc([C@]3(C)CCCN3C(=O)c3ccc(C)cc3-n3nccn3)[nH]c2cc1OC` [Ex. 5.70], for which the concentration for half-maximal inhibition (IC50) was 31 nM on human orexin-1 receptor and 83 nM at human orexin-2 receptor.

Regarding `C[C@@]1(c2nc3cc(C(F)(F)F)ccc3[nH]2)CCCN1C(=O)c1cc(C(F)(F)F)ccc1-n1nccn1` [Ex. 5.172], the 50% inhibitory concentration (IC50) was found to be 92 nM on human orexin-1 receptor and 704 nM on human orexin-2 receptor.

Regarding `Cc1ccc(C(=O)N2CC[C@H](C)[C@H]2c2nc3cc(Cl)c(C)cc3[nH]2)c(-c2cccnc2)c1` [Ex. 4.110], the results for the IC50 at human orexin-1 receptor and at human orexin-2 receptor were 13 nM and 1520 nM, respectively.

For the compound `CSc1cccc2nc([C@@H]3CCCN3C(=O)c3cnc(C)nc3-c3ccc(Br)c(Cl)c3)[nH]c12` [Ex. 1.90], the half-maximal inhibitory concentration (IC50) on human orexin-1 receptor amounted to 2 nM; at human orexin-2 receptor it was 14 nM.

Consider `C=C1C[C@@H](c2nc3cccc(C)c3[nH]2)N(C(=O)c2cc(C)c(C)cc2-n2nccn2)C1` [Ex. 6.108], for which the half-inhibitory concentration (IC50) at human orexin-1 receptor is 414 nM; at human orexin-2 receptor, 7 nM.

For `CSc1cccc2nc([C@@H]3CCCN3C(=O)c3cnc(C)nc3-c3ccc(Cl)c(Cl)c3)[nH]c12` [Ex. 1.79], the values for the half-inhibitory concentration (IC50) on human orexin-1 receptor and on human orexin-2 receptor were 5 nM and 46 nM, respectively.

In the case of `Cc1ccc(-n2nccn2)c(C(=O)N2CCC[C@@]2(C)c2nc3c(C)c(Cl)ccc3[nH]2)n1` [Ex. 5.47], the IC50 was 5 nM on human orexin-1 receptor and 15 nM on human orexin-2 receptor.

Regarding `C=C1C[C@@H](c2nc3cc(Cl)c(C(F)(F)F)cc3[nH]2)N(C(=O)c2cc(C(F)(F)F)ccc2-n2nccn2)C1` [Ex. 6.184], the 50% inhibitory concentration (IC50) on human orexin-1 receptor worked out at 67 nM; at human orexin-2 receptor, 73 nM.

Take `Cc1cc2[nH]c([C@@H]3[C@@H](C)CCN3C(=O)c3cc(C(F)(F)F)ccc3-c3ccccc3)nc2cc1Cl` [Ex. 4.114]: the 50% inhibitory concentration (IC50) at human orexin-1 receptor is 33 nM; on human orexin-2 receptor, 1360 nM.

For `Cc1ccc(-c2ccccc2C)c(C(=O)N2CCC[C@@]2(C)c2nc3cc(C)c(C)cc3[nH]2)c1` [Ex. 5.98], the IC50 amounted to 120 nM on human orexin-1 receptor and 264 nM on human orexin-2 receptor.

For `C=C1C[C@@H](c2nc3ccc(Cl)c(C)c3[nH]2)N(C(=O)c2nc(C)sc2-c2cccc(C)c2)C1` [Ex. 6.122], the IC50 at human orexin-1 receptor is 0.9 nM; at human orexin-2 receptor, 0.6 nM.

For `Cc1ccc(-c2ccc(F)cc2C)c(C(=O)N2CCC[C@@]2(C)c2nc3c(C)c(C)ccc3[nH]2)c1` [Ex. 5.108], the IC50 turned out to be 265 nM on human orexin-1 receptor and 161 nM on human orexin-2 receptor.

As to `Cc1ccc(-n2nccn2)c(C(=O)N2CC[C@H](C)[C@H]2c2nc3cc(C(F)(F)F)ccc3[nH]2)c1` [Ex. 4.29], the concentration for half-maximal inhibition (IC50) at human orexin-1 receptor worked out at 30 nM; on human orexin-2 receptor, 353 nM.

With `Cc1nc(C(=O)N2CCCC2c2nc3c(Br)cccc3[nH]2)c(-c2cccc(Cl)c2)s1` (stereo not drawn) [Ex. 1.106], the IC50 at human orexin-1 receptor amounted to 17 nM; on human orexin-2 receptor it was 31 nM.

As to `CSc1cccc2nc([C@@H]3CCCN3C(=O)c3nc(C4CC4)sc3-c3ccccc3)[nH]c12` [Ex. 1.61], the IC50 on human orexin-1 receptor and on human orexin-2 receptor was 21 nM in each case.

Turning to `C=C1C[C@@H](c2nc3ccc(Cl)c(C)c3[nH]2)N(C(=O)c2nc(C)sc2-c2ccc(F)cc2)C1` [Ex. 6.118], the IC50 on human orexin-1 receptor came to 21 nM; on human orexin-2 receptor, 4 nM.

For `C=C1C[C@@H](c2nc3c(Br)cccc3[nH]2)N(C(=O)c2cc(C)ccc2-n2nccn2)C1` [Ex. 6.64], the IC50 at human orexin-1 receptor came to 142 nM; on human orexin-2 receptor, 33 nM.

Take `CO[C@@H]1C[C@@H](c2nc3ccc(Cl)c(C)c3[nH]2)N(C(=O)c2nc(N(C)C)sc2-c2cccc(Cl)c2)C1` [Ex. 3.41]: the IC50 at human orexin-1 receptor is 0.7 nM; on human orexin-2 receptor, 7 nM.

For the compound `COc1ccc2nc([C@@H]3CCCN3C(=O)c3cnc(C)nc3-c3ccc(C)c(C)c3)[nH]c2c1` [Ex. 1.31], the results for the IC50 on human orexin-1 receptor and at human orexin-2 receptor were 195 nM and 78 nM, respectively.

`COc1ccc2[nH]c([C@@H]3CCCN3C(=O)c3nc(C)sc3-c3cccc(Cl)c3)nc2c1` [Ex. 1.9]: the results for the IC50 on human orexin-1 receptor and on human orexin-2 receptor were 337 nM and 69 nM, respectively.

`Cc1ccc(-c2nc(C(=O)N3CCC[C@@]3(C)c3nc4c(C)c(Cl)ccc4[nH]3)c(-c3ccc(F)cc3)s2)cc1` [Ex. 5.232]: the IC50 at human orexin-1 receptor is 20 nM; on human orexin-2 receptor, 2060 nM.

With `Cc1ccc(-n2nccn2)c(C(=O)N2CC[C@H](C)[C@H]2c2nc3cc(C)c(C)cc3[nH]2)c1` [Ex. 4.30], the IC50 at human orexin-1 receptor was 12 nM; on human orexin-2 receptor it was 155 nM.

`Cc1ccc(C(=O)N2CCC[C@@]2(C)c2nc3c(C)c(C)c(Br)cc3[nH]2)c(-n2nccn2)c1C` [Ex. 5.267]: the half-inhibitory concentration (IC50) on human orexin-1 receptor worked out at 12 nM; at human orexin-2 receptor it was 105 nM.

Regarding `C=C1CC(c2nc3c(OC)ccc(OC)c3[nH]2)N(C(=O)c2cc(C)sc2-c2ccc(C)c(C)c2)C1` (racemic) [Ex. 6.83], the IC50 on human orexin-1 receptor came out at 8 nM; at human orexin-2 receptor, 23 nM.

Regarding `Cc1cc(C)c2nc(C3CCCN3C(=O)c3nc(C)sc3-c3cccc(Cl)c3)[nH]c2c1` (racemic) [Ex. 1.102], the IC50 on human orexin-1 receptor and at human orexin-2 receptor was 17 nM each time.

With `Cc1ccc(C(=O)N2CCC[C@@]2(C)c2nc3c(C)c(Cl)ccc3[nH]2)c(-n2nccn2)c1` [Ex. 5.38], the values for the IC50 at human orexin-1 receptor and at human orexin-2 receptor were 4 nM and 12 nM, respectively.

Regarding `COc1cccc(-c2ccc(C)cc2C(=O)N2CCC[C@@]2(C)c2nc3cc(C)c(C)cc3n2CC2CC2)c1` [Ex. 7.49], the half-inhibitory concentration (IC50) on human orexin-1 receptor was 96 nM; at human orexin-2 receptor, 173 nM.

With `Cc1ccc(C(=O)N2CC[C@H](C)[C@H]2c2nc3cc(Cl)c(C)cc3[nH]2)c(-c2ncccn2)c1` [Ex. 4.130], the IC50 at human orexin-1 receptor turned out to be 11 nM; on human orexin-2 receptor, 128 nM.

In the case of `Cc1nc(C(=O)N2CCCC2c2nc3cc(C(F)(F)F)ccc3[nH]2)c(-c2ccccc2)s1` (stereo not drawn) [Ex. 1.121], the results for the half-maximal inhibitory concentration (IC50) at human orexin-1 receptor and on human orexin-2 receptor were 76 nM and 287 nM, respectively.

Take `CSc1cccc2nc([C@@H]3CCCN3C(=O)c3ccccc3-c3ccc(C)c(C)c3)[nH]c12` [Ex. 1.75]: the half-maximal inhibitory concentration (IC50) at human orexin-1 receptor came out at 5 nM; on human orexin-2 receptor, 9 nM.

Turning to `Cc1ccc(-n2nccn2)c(C(=O)N2CCC[C@H]2c2nc3cc(Cl)ccc3[nH]2)c1` [Ex. 1.3], the IC50 was found to be 265 nM on human orexin-1 receptor and 51 nM on human orexin-2 receptor.

For `C=C1CC(c2nc3c(C)cc(C)cc3[nH]2)N(C(=O)c2cc(C)sc2-c2ccc(C)c(C)c2)C1` (stereo not drawn) [Ex. 6.76], the half-maximal inhibitory concentration (IC50) at human orexin-1 receptor and on human orexin-2 receptor was 4 nM each time.

For `CSc1ccc2nc([C@@H]3CCCN3C(=O)c3nccnc3-c3cc(C)cc(F)c3)[nH]c2c1` [Ex. 1.45], the values for the IC50 at human orexin-1 receptor and on human orexin-2 receptor were 501 nM and 109 nM, respectively.

Turning to `CSc1cccc2nc([C@@H]3CCCN3C(=O)c3cnc(C)nc3-c3cc(Cl)cc(Cl)c3)[nH]c12` [Ex. 1.91], the IC50 at human orexin-1 receptor came out at 13 nM; at human orexin-2 receptor, 25 nM.

Turning to `C=C1C[C@@H](c2nc3ccc(Cl)c(C)c3[nH]2)N(C(=O)c2nc(C)sc2-c2cc(C)cc(C)c2)C1` [Ex. 6.124], the IC50 at human orexin-1 receptor was found to be 15 nM; at human orexin-2 receptor, 4 nM.

In the case of `COc1cc2nc([C@]3(C)CCCN3C(=O)c3ccccc3-c3cccc(C)c3)[nH]c2cc1OC` [Ex. 5.87], the IC50 came out at 203 nM at human orexin-1 receptor and 157 nM at human orexin-2 receptor.

With `C=C1C[C@@H](c2nc3ccc(Cl)c(C)c3[nH]2)N(C(=O)c2cc(Cl)ccc2-n2nccn2)C1` [Ex. 6.128], the half-inhibitory concentration (IC50) at human orexin-1 receptor is 20 nM; on human orexin-2 receptor, 1 nM.

For `Cc1nc(C(=O)N2CCCC2c2nc3c(C)cccc3[nH]2)c(-c2cccc(Cl)c2)s1` (stereo not drawn) [Ex. 1.96], the results for the IC50 at human orexin-1 receptor and at human orexin-2 receptor were 54 nM and 43 nM, respectively.

For the compound `COc1cc(C(=O)N2CCC[C@@]2(C)c2nc3cc(C(F)(F)F)c(Cl)cc3[nH]2)c(-n2nccn2)cc1OC` [Ex. 5.135], the half-maximal inhibitory concentration (IC50) at human orexin-1 receptor worked out at 10 nM; at human orexin-2 receptor it was 49 nM.

For `Cc1nc(C(=O)N2CC[C@H](C)[C@H]2c2nc3cc(Cl)c(C)cc3[nH]2)c(-c2ccc(Cl)cc2)s1` [Ex. 4.78], the 50% inhibitory concentration (IC50) came to 3 nM at human orexin-1 receptor and 1630 nM at human orexin-2 receptor.

On to `C[C@@]1(c2nc3cc(C(F)(F)F)ccc3[nH]2)CCCN1C(=O)c1cc(-c2cccc(C#N)c2)ccc1-n1nccn1` [Ex. 5.295], for which the results for the concentration for half-maximal inhibition (IC50) at human orexin-1 receptor and on human orexin-2 receptor were 8 nM and 254 nM, respectively.

As for `C=C1C[C@@H](c2nc3ccc(Cl)c(C)c3[nH]2)N(C(=O)c2nc(C)sc2-c2ccc(Br)cc2)C1` [Ex. 6.116], the IC50 on human orexin-1 receptor worked out at 14 nM; on human orexin-2 receptor, 3 nM.

Take `Cc1ccc(-c2ccccc2F)c(C(=O)N2CCC[C@@]2(C)c2nc3c(C)c(C)ccc3[nH]2)c1` [Ex. 5.114]: the concentration for half-maximal inhibition (IC50) was 10 nM on human orexin-1 receptor and 21 nM at human orexin-2 receptor.

For the compound `COc1ccc(-n2nccn2)c(C(=O)N2CCC[C@H]2c2nc3cccc(SC)c3[nH]2)c1F` [Ex. 1.168], the IC50 came to 20 nM at human orexin-1 receptor and 57 nM on human orexin-2 receptor.

For the compound `C=C1C[C@@H](c2nc3cc(OC)ccc3[nH]2)N(C(=O)c2ccccc2-c2csc(C)n2)C1` [Ex. 6.21], the results for the IC50 on human orexin-1 receptor and at human orexin-2 receptor were 1970 nM and 76 nM, respectively.

`Cc1ccc(C(=O)N2CCC[C@@]2(C)c2nc3cc(C)c(C)cc3[nH]2)c(-n2nccn2)c1` [Ex. 5.56]: the concentration for half-maximal inhibition (IC50) amounted to 12 nM on human orexin-1 receptor and 15 nM on human orexin-2 receptor.

Turning to `CO[C@H]1C[C@@H](c2nc3c(C)c(Cl)ccc3[nH]2)N(C(=O)c2nc(C)sc2-c2ccccc2)C1` [Ex. 3.5], the half-maximal inhibitory concentration (IC50) is 109 nM on human orexin-1 receptor and 74 nM on human orexin-2 receptor.

In the case of `Cc1cccc(-c2nc(C(=O)N3CCC[C@@]3(C)c3nc4cc(Cl)c(C(F)(F)F)cc4[nH]3)c(-c3ccc(F)cc3)s2)c1` [Ex. 5.287], the concentration for half-maximal inhibition (IC50) on human orexin-1 receptor was 53 nM; at human orexin-2 receptor, 1160 nM.

On to `Cc1ccc(-c2ccc(F)cc2C)c(C(=O)N2CCC[C@@]2(C)c2nc3cc(C)c(C)cc3[nH]2)c1` [Ex. 5.91], for which the IC50 was found to be 217 nM at human orexin-1 receptor and 1290 nM on human orexin-2 receptor.

These data come from patent publication US9732075B2, “Benzimidazole-proline derivatives” (IDORSIA PHARMACEUTICALS LTD, priority 2012, dated 2017).
